Tests used:
[1] = tested on: spasmodic seizures caused by pentetrazole; test: antipentetrazole test (mice, oral); assay type: in vivo; settings: Mus musculus, 0.5 h, 30 minutes before 120 mg/kg pentetrazole i.p., dosage protecting 50% of animals, Probit method
Description: As mentioned earlier, the compounds of formula I have valuable pharmacological properties. In particular they display pronounced muscle relaxant, sedative-hypnotic, anticonvulsive and/or anxiolytic properties and have only a low toxicity.
(§1) In this animal experiment the compound under investigation is administered orally to mice and 30 minutes later there are administered intraperitoneally 120 mg/kg of pentetrazole, which causes emprosthotonus and tonic stretchings of the fore and/or hind limbs in unprotected animals 1-4 minutes after the injection. 10 experimental animals are used per dosage of test substance. After counting the protected experimental animals the ED50 is determined according to the Probit method. The ED50 is that dosage which protects 50% of the experimental animals from the spasmodic seizures caused by pentetrazole. The results which have been obtained with representative members of the class of compound defined by formula I in the experiment described previously are compiled in the following Table. Moreover, the Table contains data concerning the acute toxicity (LD50) of some of these compounds in mg/kg in the case of single oral administration to mice.

[2] = acute toxicity (LD50), single oral administration to mice; settings: mouse, in vivo
Description: as §1

SMILES | ED50 [1] [mg/kg] | LD50 [2] [mg/kg]
COC1CN(C(=O)c2cc(-c3ccccc3)c(=O)n3ncc4ccc(Cl)cc4c23)C1 [Compound F, 1-[(10-Chloro-4-oxo-3-phenyl-4H-pyrido[2,1-a]-phthalazin-1-yl)carbonyl]-3-methoxyazetidine] | 0.79 | 5000
COC1CN(C(=O)c2cc(-c3ccccc3)c(=O)n3ncc4ccsc4c23)C1 [Compound M, 3-Methoxy-1-[(7-oxo-8-phenyl-7H-pyrido-[1,2-b]thieno[2,3-d]pyridazin-10-yl)carbonyl]-azetidine] | 0.83 | 5000
CN(C)C(=O)c1cc(-c2ccccc2)c(=O)n2ncc3ccc(Cl)cc3c12 [Compound G, N,N-Dimethyl-10-chloro-4-oxo-3-phenyl-4H-pyrido[2,1-a]phthalazine-1-carboxamide] | 0.08 | 5000
CCN(CC)C(=O)c1cc(-c2ccccc2)c(=O)n2ncc3ccc(Cl)cc3c12 [Compound H, N,N-Diethyl-10-chloro-4-oxo-3-phenyl-4H-pyrido[2,1-a]phthalazine-1-carboxamide] | 0.66 | > 4000
COC1CN(C(=O)c2cc(-c3ccccc3)c(=O)n3ncc4ccccc4c23)C1 [Compound A, 3-methoxy-1-[(4-oxo-3-phenyl-4H-pyrido-[2,1-a]phthalazin-1-yl)carbonyl]azetidine] | 1.1 | 1500
